Experimental data as given in PubChem BioAssay AID977605 (Broad Institute, 2014).
Calls of active or inactive are those of the source.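 Rule for the calls: active = fitted curve reaches 40% activation below the top valid tested dose, in every test run; inconclusive = test runs disagree on the call; inactive = the rest, including effects opposite to the expected direction.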

Test: endothelial E-selectin upregulation by compounds – imaging, HUVEC, cherry-picked samples, dose response (AID 977605);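 note: signal is the share of imaged cells scored positive for E-selectin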
Settings: HUVEC E-selectin immunostaining, percent of TNF-alpha response over vehicle

| SMILES | activation (at 19.5 µM (top of the series)) | further results |
| --- | --- | --- |
| C[C@@H]1CN([C@H](C)CO)C(=O)c2cc(NC(=O)NC3CCCCC3)ccc2O[C@H]1CN(C)S(=O)(=O)c1ccc(Cl)cc1 | 1.03% (inactive) |  |
| C[C@@H]1CN([C@H](C)CO)C(=O)c2cccc(NS(=O)(=O)c3ccc(F)cc3)c2O[C@@H]1CN(C)S(=O)(=O)c1cccs1 |  | activation (at 21 µM (top of the series)): -0.042% (inactive) |
| COc1ccccc1CN1CC(C(=O)N(C)Cc2[nH]c3ccccc3c2C)CCC1=O (stereo not given) | 0.071% (inactive) |  |
| C[C@H](CO)N1C[C@H](C)[C@H](CN(C)Cc2ccc3c(c2)OCO3)Oc2ccc(NC(=O)Cc3cn(C)c4ccccc34)cc2C1=O | 0.14% (inactive) |  |
| CC1CCCC(C)N1C(=O)CSc1nc2c(c(=O)n(C)c(=O)n2C)n1C (stereo not given) | -0.005% (inactive) |  |
| CC(C)NC(=O)Nc1ccc2c(c1)CC(=O)N([C@H](C)CO)C[C@@H](C)[C@@H](CN(C)Cc1ccc3c(c1)OCO3)O2 |  | activation (at 21 µM (top of the series)): -0.173% (inactive) |
| Cc1ccc(S(=O)(=O)Nc2cc(-c3ccccc3)nn2C)cc1Cl | -0.007% (inactive) |  |
| COc1ccc(CN(C)C[C@@H]2Oc3ccc(NC(=O)c4ccncc4)cc3C(=O)N([C@@H](C)CO)C[C@H]2C)cc1 | 19.2% (inactive) |  |
| C[C@H](CO)N1C[C@H](C)[C@H](CN(C)Cc2ccc(Cl)c(Cl)c2)Oc2c(NS(=O)(=O)c3cn(C)cn3)cccc2C1=O | -0.123% (inactive) |  |
| C[C@@H]1CN([C@H](C)CO)C(=O)c2cc(NC(=O)C3CCCCC3)ccc2O[C@H]1CN(C)C(=O)Nc1ccc2c(c1)OCO2 |  | activation (at 21 µM (top of the series)): 4.77% (inactive) |
| C[C@@H]1CN([C@@H](C)CO)C(=O)c2cc(NS(=O)(=O)c3cccs3)ccc2O[C@@H]1CN(C)C(=O)Nc1ccc2c(c1)OCO2 | -0.086% (inactive) |  |
| Cc1noc(C)c1NC(=O)Nc1cccc2c1O[C@@H](CN(C)CC1CCCCC1)[C@H](C)CN([C@@H](C)CO)C2=O |  | activation (at 21 µM (top of the series)): -0.074% (inactive) |
| Cc1ccccc1CN1CCN(S(=O)(=O)c2ccc(Cl)s2)CC1 | 0.152% (inactive) |  |
| CCCN1CCN(C(=O)c2ccc(CS(=O)c3ccc(Cl)cc3)o2)CC1 (stereo not given) | 0.214% (inactive) |  |
| CC(C)NC(=O)Nc1cccc2c1O[C@H](CN(C)Cc1ccc(Cl)c(Cl)c1)[C@@H](C)CN([C@@H](C)CO)C2=O | 0.01% (inactive) |  |
| CC(C)NC(=O)Nc1ccc2c(c1)C(=O)N([C@@H](C)CO)C[C@@H](C)[C@H](CN(C)Cc1ccc(C(F)(F)F)cc1)O2 |  | activation (at 21 µM (top of the series)): 0.029% (inactive) |
| C[C@@H]1CN([C@@H](C)CO)C(=O)Cc2cc(NC(=O)Cn3cnnn3)ccc2O[C@H]1CN(C)Cc1ccc(Oc2ccccc2)cc1 | 0.416% (inactive) |  |
| COc1cc(OC)cc(N(C(=O)c2snc(C(N)=O)c2N)C(C(=O)NCC2CCCO2)c2ccc(C)o2)c1 (stereo not given) | -0.112% (inactive) |  |
| CC(C)N(CCC#N)C(=O)Nc1ccc2c(c1)CCO2 | -0.194% (inactive) |  |
| CNC[C@@H]1Oc2ccc(NS(C)(=O)=O)cc2C(=O)N([C@@H](C)CO)C[C@@H]1C | -0.177% (inactive) |  |
| C[C@@H]1CN([C@H](C)CO)C(=O)c2cc(N(C)C)ccc2O[C@@H]1CN(C)C(=O)Nc1ccc2c(c1)OCO2 | 0.018% (inactive) |  |
| C[C@@H]1CN([C@@H](C)CO)C(=O)Cc2cc(NC(=O)Nc3ccc(F)cc3)ccc2O[C@H]1CN(C)C(=O)Nc1ccc(C(F)(F)F)cc1 | -0.14% (inactive) |  |
| CCCC#Cc1ccc2c(c1)O[C@@H](CN(C)S(=O)(=O)c1cccc(OC)c1)[C@@H](C)CN([C@@H](C)CO)S2(=O)=O | 0.13% (inactive) |  |
| COc1ccc2sc(-c3ccccc3OC)c(-c3ccc(O)cc3)c2c1 | -0.095% (inactive) |  |

| SMILES | activation (at 19.5 µM (top of the series)) | further results |
| --- | --- | --- |
| C[C@H](CO)N1C[C@H](C)[C@@H](CN(C)S(=O)(=O)c2cccs2)Oc2ccc(NS(=O)(=O)c3ccc(Cl)cc3)cc2CC1=O | 0.125% (inactive) |  |
| Cc1ccc(S(=O)(=O)N(C)C[C@H]2Oc3ccc(N(C)C)cc3C(=O)N([C@@H](C)CO)C[C@@H]2C)cc1 | 9.64% (inactive) |  |
| C[C@H](CO)N1C[C@H](C)[C@H](CN(C)S(C)(=O)=O)Oc2ccc(NC(=O)C3CCCCC3)cc2C1=O |  | activation (at 21 µM (top of the series)): -0.059% (inactive) |
| CC(C)CC#Cc1cnc2c(c1)C(=O)N([C@H](C)CO)C[C@@H](C)[C@H](CN(C)C(=O)c1ccc3c(c1)OCO3)O2 | -0.021% (inactive) |  |
| COc1ccccc1N(CC(=O)NCCSc1ccccn1)S(=O)(=O)c1ccccc1 | -0.052% (inactive) |  |
| COc1ccc(CNC(=O)Cn2ccc(N)nc2=O)cc1 | 0.076% (inactive) |  |
| Cn1c(CNS(=O)(=O)c2ccc(Cl)cc2)cc(=O)n(C)c1=O | -0.279% (inactive) |  |
| COc1ccc(CN(C)C[C@H]2Oc3ccc(N(C)C)cc3CC(=O)N([C@H](C)CO)C[C@H]2C)cc1 | 0.315% (inactive) |  |
| Cc1noc(C)c1S(=O)(=O)N(C)C[C@H]1Oc2ccc(NC(=O)C3CC3)cc2CC(=O)N([C@@H](C)CO)C[C@@H]1C | 32.2% (inactive) |  |
| NC(=O)C1CCN(c2nc(-c3ccccc3-c3ccccc3)cs2)CC1 | 0.136% (inactive) |  |
| C[C@@H]1CN([C@H](C)CO)C(=O)c2cc(NC(=O)Cn3cnnn3)ccc2O[C@@H]1CN(C)S(=O)(=O)c1ccccc1 | 0.017% (inactive) |  |
| COC(=O)CCCn1cc(CN2CC(N3CCN(Cc4ccccc4F)CC3)CS2(=O)=O)nn1 (stereo not given) | -0.246% (inactive) |  |
| C[C@@H]1CN([C@H](C)CO)C(=O)c2cc(NS(=O)(=O)c3cn(C)cn3)ccc2O[C@@H]1CN(C)C(=O)Nc1ccc2c(c1)OCO2 |  | activation (at 21 µM (top of the series)): -0.098% (inactive) |
| C[C@H](CO)N1C[C@H](C)[C@@H](CN(C)Cc2ccc(C(F)(F)F)cc2)Oc2c(NS(C)(=O)=O)cccc2C1=O | -0.122% (inactive) |  |
| CC(C)(CN1CCCC1)NS(=O)(=O)c1ccc(Cl)cc1 | -0.279% (inactive) |  |
| C[C@@H]1CN([C@@H](C)CO)C(=O)Cc2cc(NC(=O)Nc3ccc(F)cc3)ccc2O[C@@H]1CN(C)Cc1ccncc1 | 10.4% (inactive) |  |
| C[C@H](CO)N1C[C@H](C)[C@H](CN(C)S(=O)(=O)c2ccc(Cl)cc2)Oc2ccc(NC(=O)NC3CCCCC3)cc2C1=O | -0.048% (inactive) |  |
| C[C@@H]1CN([C@H](C)CO)C(=O)Cc2cc(NC(=O)Cc3cn(C)c4ccccc34)ccc2O[C@@H]1CN(C)Cc1ccc(C(F)(F)F)cc1 |  | activation (at 21 µM (top of the series)): 0.433% (inactive) |
| COc1ccc(CN(C)C[C@@H]2Oc3ccc(NC(=O)c4ccncc4)cc3C(=O)N([C@H](C)CO)C[C@H]2C)cc1 |  | activation (at 21 µM (top of the series)): 0.114% (inactive) |
| C[C@@H]1CN([C@H](C)CO)C(=O)Cc2cc(NC(=O)CCN3CCOCC3)ccc2O[C@H]1CN(C)S(C)(=O)=O | 0.606% (inactive) |  |
| C[C@H]1CN([C@@H](C)CO)C(=O)Cc2cc(NC(=O)c3ccncc3)ccc2O[C@H]1CN(C)Cc1ccc(C(=O)Nc2ccccc2N)cc1 | 6.93% (inactive) |  |
| CC(C)NC(=O)N(C)C[C@@H]1Oc2ccc(NC(=O)Cc3cn(C)c4ccccc34)cc2C(=O)N([C@H](C)CO)C[C@H]1C | 0.047% (inactive) |  |
| C[C@@H]1CN([C@@H](C)CO)C(=O)Cc2cc(NC(=O)Nc3ccc4c(c3)OCO4)ccc2O[C@H]1CN(C)C | -0.168% (inactive) |  |
| CC(C)NC(=O)Nc1ccc2c(c1)C(=O)N(C)[C@@H]1CC[C@@H](CC(=O)NCC(F)(F)F)O[C@@H]1CO2 | 0.147% (inactive) |  |

| SMILES | activation (at 19.5 µM (top of the series)) | further results |
| --- | --- | --- |
| C[C@@H]1CN([C@H](C)CO)C(=O)c2cccc(NC(=O)C3CC3)c2O[C@@H]1CN(C)CC1CC1 | -0.106% (inactive) |  |
| C[C@H](CO)N1C[C@H](C)[C@H](CN(C)C(=O)Nc2ccc3c(c2)OCO3)Oc2ccc(NC(=O)CCCCCC(=O)Nc3ccccc3N)cc2CC1=O |  | activation (at 18 µM (top of the series)): 0.255% (inactive) |
| COc1ccc(S(=O)(=O)N(C)C[C@H]2Oc3ccc(NC(=O)CCCN(C)C)cc3C(=O)N([C@@H](C)CO)C[C@H]2C)cc1 | 0.162% (inactive) |  |
| O=C(Nc1cc(C(F)(F)F)cc(C(F)(F)F)c1)Nc1cnn(-c2ccc([N+](=O)[O-])cc2)c1C(F)(F)F | 0.091% (inactive) |  |
| OC(CSc1ccc(F)cc1)CN1CCN(c2ccccc2)CC1 (stereo not given) | -0.165% (inactive) |  |
| CC(C)CC#Cc1ccc2c(c1)O[C@H](CN(C)C(=O)c1ccccc1)[C@H](C)CN([C@@H](C)CO)S2(=O)=O | -0.183% (inactive) |  |
| Cc1ccc(NC(=O)CN2CCOCC2)cc1Cl | 0.043% (inactive) |  |
| CC(=O)Nc1ccc(S(=O)(=O)NNc2cccc(C)c2)cc1 | 0.281% (inactive) |  |
| C[C@H](CO)N1C[C@H](C)[C@H](CN(C)C(=O)c2ccccc2)OCc2ccccc2-c2c(n(C)c3ccccc23)C1=O |  | activation (at 21 µM (top of the series)): -0.093% (inactive) |
| C[C@@H]1CN([C@@H](C)CO)C(=O)c2cc(NC(=O)CCN3CCOCC3)ccc2O[C@H]1CN(C)Cc1ccncc1 |  | activation (at 21 µM (top of the series)): -0.05% (inactive) |
| COc1ccc(C(=O)Nc2ccc3c(c2)OCCO3)cc1[N+](=O)[O-] | 0.055% (inactive) |  |
| C[C@H](CO)N1C[C@H](C)[C@H](CN(C)C(=O)Nc2ccccc2)Oc2ccc(NS(C)(=O)=O)cc2C1=O | -0.163% (inactive) |  |
| COc1ccccc1N1CCN(C(=O)c2ccco2)CC1 | 1.75% (inactive) |  |
| COc1ccc(NC(=O)N(C)C[C@H]2Oc3ccc(NC(=O)Cc4cn(C)c5ccccc45)cc3C(=O)N([C@H](C)CO)C[C@@H]2C)cc1 |  | activation (at 21 µM (top of the series)): 7.04% (inactive) |
| CN(CC(=O)Nc1ccccc1Br)C(=O)CNC(=O)C1CCCCC1 | 0.383% (inactive) |  |
| C[C@@H]1CN([C@H](C)CO)C(=O)c2cc(NC(=O)Cc3cn(C)c4ccccc34)ccc2O[C@H]1CN(C)Cc1ccc(Cl)c(Cl)c1 | 4.38% (inactive) |  |
| C[C@@H]1CN([C@@H](C)CO)C(=O)Cc2cc(NC(=O)Nc3ccc(F)cc3)ccc2O[C@@H]1CN(C)S(=O)(=O)c1cn(C)cn1 | -0.041% (inactive) |  |
| C[C@@H]1CN([C@H](C)CO)C(=O)c2cc(NS(=O)(=O)c3ccc(F)cc3)ccc2O[C@@H](C)CCCCO[C@@H]1CN(C)S(C)(=O)=O | 3.44% (inactive) |  |
| CCOc1cnc(C(=O)NNC(=O)c2ccccc2Br)o1 | 0.602% (inactive) |  |
| C[C@@H]1CN([C@H](C)CO)C(=O)c2cccc(NC(=O)c3ccc(-c4nccs4)cc3)c2O[C@H]1CN(C)Cc1ccc(Oc2ccccc2)cc1 | 9.5% (inactive) |  |
| O=C(NCc1ccccc1)C1CCCN(S(=O)(=O)c2ccc(-n3cnnn3)cc2)C1 (stereo not given) | 1.85% (inactive) |  |
| CC(C)OC(=O)c1cccnc1N1CCN(c2cccc(Cl)c2)CC1 | 0.039% (inactive) |  |
